The source made the active and inactive calls. The rule behind the calls is not given here.
Key:
[1] = target: Serine/threonine-protein kinase 32C (Homo sapiens) (UniProt Q86UX6); assay: Inhibition of YANK3 Lys2 labeling site in human Huh-7 cells at 1 uM by KiNativ Profiling analysis relative to control; type: cell-based
[2] = target: Mitogen-activated protein kinase kinase kinase 4 (Homo sapiens) (UniProt Q9Y6R4); assay: Inhibition of MAP3K4 Lys2 labeling site in human A-375 cells at 0.05 uM by KiNativ Profiling analysis relative to control; type: cell-based
Sequence of Mitogen-activated protein kinase kinase kinase 4 (Homo sapiens) (Q9Y6R4 whole entry, canonical isoform): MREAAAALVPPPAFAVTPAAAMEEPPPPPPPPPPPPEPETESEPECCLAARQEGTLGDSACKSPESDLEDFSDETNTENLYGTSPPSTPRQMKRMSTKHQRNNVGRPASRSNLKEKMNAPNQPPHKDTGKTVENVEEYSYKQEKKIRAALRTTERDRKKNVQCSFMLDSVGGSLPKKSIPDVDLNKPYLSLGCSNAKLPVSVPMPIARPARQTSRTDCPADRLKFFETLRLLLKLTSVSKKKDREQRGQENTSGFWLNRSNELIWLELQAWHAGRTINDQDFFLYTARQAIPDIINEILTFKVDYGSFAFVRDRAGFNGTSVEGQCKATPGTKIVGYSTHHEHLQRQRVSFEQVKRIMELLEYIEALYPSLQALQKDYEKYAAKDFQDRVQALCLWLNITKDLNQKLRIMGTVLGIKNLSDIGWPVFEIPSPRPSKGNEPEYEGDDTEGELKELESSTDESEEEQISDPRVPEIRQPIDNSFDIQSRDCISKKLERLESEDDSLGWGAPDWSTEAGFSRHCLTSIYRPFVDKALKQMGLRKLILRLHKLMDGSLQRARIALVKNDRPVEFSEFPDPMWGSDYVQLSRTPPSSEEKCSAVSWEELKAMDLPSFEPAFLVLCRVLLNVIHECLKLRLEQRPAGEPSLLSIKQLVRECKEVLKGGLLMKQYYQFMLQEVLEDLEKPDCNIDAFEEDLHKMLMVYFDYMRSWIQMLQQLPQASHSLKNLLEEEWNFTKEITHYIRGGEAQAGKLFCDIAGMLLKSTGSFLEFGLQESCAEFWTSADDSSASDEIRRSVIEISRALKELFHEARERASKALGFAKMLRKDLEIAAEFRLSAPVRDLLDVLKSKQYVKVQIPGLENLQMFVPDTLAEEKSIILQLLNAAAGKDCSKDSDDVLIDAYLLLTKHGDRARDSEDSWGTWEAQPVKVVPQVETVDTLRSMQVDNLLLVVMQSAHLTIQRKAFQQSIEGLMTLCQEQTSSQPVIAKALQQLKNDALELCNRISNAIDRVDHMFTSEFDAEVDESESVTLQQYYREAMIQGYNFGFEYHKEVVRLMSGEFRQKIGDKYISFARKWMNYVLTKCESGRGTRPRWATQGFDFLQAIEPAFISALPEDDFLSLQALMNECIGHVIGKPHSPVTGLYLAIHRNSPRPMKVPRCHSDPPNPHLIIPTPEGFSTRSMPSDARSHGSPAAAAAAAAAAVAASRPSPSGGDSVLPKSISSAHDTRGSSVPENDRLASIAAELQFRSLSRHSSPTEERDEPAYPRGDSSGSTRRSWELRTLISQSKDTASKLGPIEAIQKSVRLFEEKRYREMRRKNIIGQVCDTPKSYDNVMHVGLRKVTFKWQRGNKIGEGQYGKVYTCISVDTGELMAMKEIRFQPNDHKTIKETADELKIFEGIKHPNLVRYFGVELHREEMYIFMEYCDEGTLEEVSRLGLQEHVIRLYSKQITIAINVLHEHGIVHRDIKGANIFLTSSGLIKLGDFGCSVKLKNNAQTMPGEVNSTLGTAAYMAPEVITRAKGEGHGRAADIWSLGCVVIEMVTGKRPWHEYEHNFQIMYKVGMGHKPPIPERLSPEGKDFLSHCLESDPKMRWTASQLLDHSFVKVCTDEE

[3] = target: T1, Phosphatidylinositol 4,5-bisphosphate 3-kinase catalytic subunit delta isoform (Homo sapiens) (UniProt O00329); assay: Inhibition of PIK3CD ATP labeling site in human A-375 cells at 0.5 uM by KiNativ Profiling analysis relative to control; type: cell-based
T1 sequence (whole entry): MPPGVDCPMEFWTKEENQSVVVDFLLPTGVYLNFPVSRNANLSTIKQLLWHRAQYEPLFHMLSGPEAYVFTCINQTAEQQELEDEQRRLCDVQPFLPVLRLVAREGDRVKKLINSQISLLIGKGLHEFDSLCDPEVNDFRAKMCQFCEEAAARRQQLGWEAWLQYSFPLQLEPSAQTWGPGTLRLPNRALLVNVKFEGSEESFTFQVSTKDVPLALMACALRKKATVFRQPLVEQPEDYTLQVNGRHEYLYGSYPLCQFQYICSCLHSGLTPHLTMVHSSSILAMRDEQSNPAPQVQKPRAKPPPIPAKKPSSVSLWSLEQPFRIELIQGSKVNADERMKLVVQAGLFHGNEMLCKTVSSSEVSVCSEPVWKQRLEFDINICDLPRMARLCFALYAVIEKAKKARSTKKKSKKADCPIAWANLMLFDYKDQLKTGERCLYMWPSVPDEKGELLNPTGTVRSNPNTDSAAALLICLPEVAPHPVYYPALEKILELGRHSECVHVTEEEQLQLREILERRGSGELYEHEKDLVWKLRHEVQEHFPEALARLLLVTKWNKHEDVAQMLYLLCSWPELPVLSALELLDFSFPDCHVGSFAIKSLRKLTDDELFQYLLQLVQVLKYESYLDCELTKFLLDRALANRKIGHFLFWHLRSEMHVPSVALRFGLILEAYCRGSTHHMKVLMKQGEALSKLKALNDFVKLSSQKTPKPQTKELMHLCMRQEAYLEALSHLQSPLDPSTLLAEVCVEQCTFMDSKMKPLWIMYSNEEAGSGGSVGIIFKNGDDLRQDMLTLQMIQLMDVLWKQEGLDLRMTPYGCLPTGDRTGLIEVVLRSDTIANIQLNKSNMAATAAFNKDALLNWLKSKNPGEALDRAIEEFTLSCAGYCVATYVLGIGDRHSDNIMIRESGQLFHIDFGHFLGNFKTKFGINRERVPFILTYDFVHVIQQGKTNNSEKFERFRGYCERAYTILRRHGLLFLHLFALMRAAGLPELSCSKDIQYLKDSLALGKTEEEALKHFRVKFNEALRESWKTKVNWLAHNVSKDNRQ

[4] = target: T2, Serine/threonine-protein kinase Sgk3 (Homo sapiens) (UniProt Q96BR1); assay: Inhibition of SGK3 Lys1 labeling site in human A-375 cells at 5 uM by KiNativ Profiling analysis relative to control; type: cell-based
T2 sequence (whole entry): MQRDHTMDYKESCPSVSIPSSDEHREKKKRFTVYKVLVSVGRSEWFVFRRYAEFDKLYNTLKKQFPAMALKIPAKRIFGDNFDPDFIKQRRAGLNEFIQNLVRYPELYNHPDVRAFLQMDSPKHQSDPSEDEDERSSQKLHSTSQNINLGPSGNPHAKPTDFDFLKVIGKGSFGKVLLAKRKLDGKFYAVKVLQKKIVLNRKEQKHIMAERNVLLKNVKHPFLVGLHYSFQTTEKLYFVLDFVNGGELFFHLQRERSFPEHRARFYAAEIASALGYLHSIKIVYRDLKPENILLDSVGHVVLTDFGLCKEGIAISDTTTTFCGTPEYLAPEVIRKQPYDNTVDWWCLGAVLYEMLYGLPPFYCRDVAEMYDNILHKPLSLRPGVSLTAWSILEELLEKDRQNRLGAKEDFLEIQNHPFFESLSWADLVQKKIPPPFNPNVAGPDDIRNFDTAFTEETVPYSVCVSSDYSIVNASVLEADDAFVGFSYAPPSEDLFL

[5] = target: Rho-associated protein kinase 1 (Homo sapiens) (UniProt Q13464); assay: Inhibition of ROCK1 in human Huh-7 cells at 10 uM by KiNativ Profiling analysis relative to control; type: cell-based
[6] = target: STE20-like serine/threonine-protein kinase (Homo sapiens) (UniProt Q9H2G2); assay: Inhibition of SLK (unknown origin) at 10 uM by Ambit Kinomescan binding assay relative to control; values are per cent of control
Sequence of STE20-like serine/threonine-protein kinase (Homo sapiens) (Q9H2G2 whole entry, looked up): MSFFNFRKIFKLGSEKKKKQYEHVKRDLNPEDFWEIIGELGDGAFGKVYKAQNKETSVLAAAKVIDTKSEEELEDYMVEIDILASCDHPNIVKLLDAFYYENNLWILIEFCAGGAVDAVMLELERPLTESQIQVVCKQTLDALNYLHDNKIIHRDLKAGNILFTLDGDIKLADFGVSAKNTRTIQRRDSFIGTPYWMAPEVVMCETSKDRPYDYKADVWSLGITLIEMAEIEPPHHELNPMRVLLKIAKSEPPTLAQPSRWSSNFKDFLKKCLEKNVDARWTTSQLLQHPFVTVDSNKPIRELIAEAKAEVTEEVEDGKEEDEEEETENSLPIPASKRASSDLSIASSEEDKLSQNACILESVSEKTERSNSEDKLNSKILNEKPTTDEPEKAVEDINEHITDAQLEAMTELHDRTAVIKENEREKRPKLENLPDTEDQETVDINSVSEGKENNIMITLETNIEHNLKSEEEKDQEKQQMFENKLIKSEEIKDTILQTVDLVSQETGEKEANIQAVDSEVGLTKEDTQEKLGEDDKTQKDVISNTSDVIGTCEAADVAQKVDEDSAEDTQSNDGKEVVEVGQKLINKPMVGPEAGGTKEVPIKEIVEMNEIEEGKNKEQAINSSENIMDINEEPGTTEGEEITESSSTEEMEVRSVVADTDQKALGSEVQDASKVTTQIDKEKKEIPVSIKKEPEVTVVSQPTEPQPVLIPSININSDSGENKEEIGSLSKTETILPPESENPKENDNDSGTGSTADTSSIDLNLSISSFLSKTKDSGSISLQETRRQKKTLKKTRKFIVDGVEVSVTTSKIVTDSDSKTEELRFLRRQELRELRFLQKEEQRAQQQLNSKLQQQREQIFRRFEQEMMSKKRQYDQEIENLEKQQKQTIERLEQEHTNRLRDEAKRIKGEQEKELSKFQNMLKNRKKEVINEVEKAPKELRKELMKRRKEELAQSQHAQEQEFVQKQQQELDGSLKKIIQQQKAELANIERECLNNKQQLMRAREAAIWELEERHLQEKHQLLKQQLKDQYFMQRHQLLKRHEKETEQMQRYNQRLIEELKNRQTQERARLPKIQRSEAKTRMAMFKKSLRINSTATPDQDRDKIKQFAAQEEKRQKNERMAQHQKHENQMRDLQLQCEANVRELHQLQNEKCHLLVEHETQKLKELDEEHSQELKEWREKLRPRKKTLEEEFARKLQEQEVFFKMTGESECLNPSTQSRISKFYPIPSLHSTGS

[7] = Inhibition of MLK1/4 K2 labeling site in human Huh-7 cells at 10 uM by KiNativ Profiling analysis relative to control; conditions: condition cancer
[8] = target: cAMP-dependent protein kinase catalytic subunit PRKX (Homo sapiens) (UniProt P51817); assay: Inhibition of PRKX (unknown origin) at 10 uM by Ambit Kinomescan binding assay
[9] = target: Ephrin type-A receptor 7 (Homo sapiens) (UniProt Q15375); assay: Inhibition of EPHA7 (unknown origin) at 10 uM by Ambit Kinomescan binding assay
Sequence of Ephrin type-A receptor 7 (Homo sapiens) (Q15375 28-998 limits assumed): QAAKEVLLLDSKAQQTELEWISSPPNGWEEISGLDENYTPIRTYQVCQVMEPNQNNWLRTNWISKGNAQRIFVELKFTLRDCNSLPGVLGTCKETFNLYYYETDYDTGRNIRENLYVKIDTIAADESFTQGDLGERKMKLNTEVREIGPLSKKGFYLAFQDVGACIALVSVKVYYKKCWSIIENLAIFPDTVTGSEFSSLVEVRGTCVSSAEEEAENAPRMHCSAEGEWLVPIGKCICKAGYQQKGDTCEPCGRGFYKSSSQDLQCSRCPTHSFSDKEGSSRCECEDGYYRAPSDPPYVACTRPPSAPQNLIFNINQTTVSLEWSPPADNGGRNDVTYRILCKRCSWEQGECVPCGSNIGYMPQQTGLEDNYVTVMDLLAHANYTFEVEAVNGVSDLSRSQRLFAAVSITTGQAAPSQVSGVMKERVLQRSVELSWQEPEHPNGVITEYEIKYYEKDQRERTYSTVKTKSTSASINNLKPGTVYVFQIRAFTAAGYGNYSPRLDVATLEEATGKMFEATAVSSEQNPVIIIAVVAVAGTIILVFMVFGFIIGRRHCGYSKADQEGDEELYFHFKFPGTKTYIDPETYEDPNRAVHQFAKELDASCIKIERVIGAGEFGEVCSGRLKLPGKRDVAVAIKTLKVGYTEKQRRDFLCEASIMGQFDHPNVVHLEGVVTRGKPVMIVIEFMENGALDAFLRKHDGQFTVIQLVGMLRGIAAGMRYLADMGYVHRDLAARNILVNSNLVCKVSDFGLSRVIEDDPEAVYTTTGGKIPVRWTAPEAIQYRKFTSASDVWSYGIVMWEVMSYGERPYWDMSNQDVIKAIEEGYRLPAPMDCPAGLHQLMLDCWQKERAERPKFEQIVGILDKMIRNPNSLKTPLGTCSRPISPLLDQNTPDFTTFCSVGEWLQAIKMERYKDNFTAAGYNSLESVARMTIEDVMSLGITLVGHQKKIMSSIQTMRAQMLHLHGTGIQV

[10] = target: T3, Serine/threonine-protein kinase STK11 (Homo sapiens) (UniProt Q15831); assay: Inhibition of LKB1 K2 labeling site in human Huh-7 cells at 1 uM by KiNativ Profiling analysis relative to control; type: cell-based
T3 sequence (whole entry): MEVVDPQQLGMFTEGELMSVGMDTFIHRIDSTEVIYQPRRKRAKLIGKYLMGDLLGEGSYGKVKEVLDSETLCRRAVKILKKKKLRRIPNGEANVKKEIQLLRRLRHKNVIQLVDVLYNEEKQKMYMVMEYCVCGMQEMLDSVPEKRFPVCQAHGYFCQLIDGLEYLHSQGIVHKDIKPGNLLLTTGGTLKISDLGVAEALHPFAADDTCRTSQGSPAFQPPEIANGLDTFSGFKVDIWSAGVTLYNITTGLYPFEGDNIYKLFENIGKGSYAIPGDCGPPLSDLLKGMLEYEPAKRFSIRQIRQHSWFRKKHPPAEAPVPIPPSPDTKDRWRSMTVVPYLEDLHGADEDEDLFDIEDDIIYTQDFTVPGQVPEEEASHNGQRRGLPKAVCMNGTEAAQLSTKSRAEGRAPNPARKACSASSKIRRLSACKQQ

[11] = target: Tyrosine-protein kinase FRK (Homo sapiens) (UniProt P42685); assay: Inhibition of FRK (unknown origin) at 10 uM by Ambit Kinomescan binding assay relative to control
Sequence of Tyrosine-protein kinase FRK (Homo sapiens) (P42685 whole entry): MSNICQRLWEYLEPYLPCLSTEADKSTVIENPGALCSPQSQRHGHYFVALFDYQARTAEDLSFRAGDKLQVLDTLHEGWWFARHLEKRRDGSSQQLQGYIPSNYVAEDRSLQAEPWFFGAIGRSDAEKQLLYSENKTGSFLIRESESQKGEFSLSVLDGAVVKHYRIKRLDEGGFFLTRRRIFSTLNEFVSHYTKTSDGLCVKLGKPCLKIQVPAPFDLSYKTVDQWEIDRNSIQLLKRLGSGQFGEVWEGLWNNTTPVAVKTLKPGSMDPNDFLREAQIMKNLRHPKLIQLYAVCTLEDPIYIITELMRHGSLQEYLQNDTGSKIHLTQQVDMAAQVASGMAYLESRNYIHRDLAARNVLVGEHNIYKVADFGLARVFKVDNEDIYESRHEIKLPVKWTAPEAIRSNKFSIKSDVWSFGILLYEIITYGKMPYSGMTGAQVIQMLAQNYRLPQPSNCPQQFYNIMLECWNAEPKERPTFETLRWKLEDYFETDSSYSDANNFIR

[12] = target: Dual specificity mitogen-activated protein kinase kinase 1 (Homo sapiens) (UniProt Q02750); assay: Inhibition of MEK1 (unknown origin) at 10 uM by Ambit Kinomescan binding assay

Sequence of Serine/threonine-protein kinase 32C (Homo sapiens) (Q86UX6 whole entry): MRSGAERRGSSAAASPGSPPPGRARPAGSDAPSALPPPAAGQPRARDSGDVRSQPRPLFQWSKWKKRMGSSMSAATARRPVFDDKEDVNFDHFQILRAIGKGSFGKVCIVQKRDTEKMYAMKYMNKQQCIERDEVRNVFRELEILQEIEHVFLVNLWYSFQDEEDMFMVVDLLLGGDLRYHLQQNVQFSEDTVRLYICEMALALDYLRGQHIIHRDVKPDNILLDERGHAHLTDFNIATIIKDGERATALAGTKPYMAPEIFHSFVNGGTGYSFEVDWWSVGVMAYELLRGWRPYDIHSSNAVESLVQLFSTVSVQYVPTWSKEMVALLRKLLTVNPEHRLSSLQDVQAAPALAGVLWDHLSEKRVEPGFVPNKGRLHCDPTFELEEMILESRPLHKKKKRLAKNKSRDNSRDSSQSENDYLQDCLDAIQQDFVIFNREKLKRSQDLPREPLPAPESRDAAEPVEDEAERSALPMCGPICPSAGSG

## CNc1cc(Oc2cc(C(=O)Nc3cc(N4CCN(C)CC4)cc(C(F)(F)F)c3)ccc2C)ncn1
[1]
  inhibition: 12.2%

## CCN1CCN(Cc2ccc(NC(=O)c3ccc(C)c(/C=C/c4cnc5[nH]ccc5c4OC)c3)cc2C(F)(F)F)CC1
[2]
  inhibition: -0.6%
[3]
  inhibition: 4.2%
[4]
  inhibition: -9.4%

## CCN1CCN(Cc2ccc(NC(=O)c3ccc(C)c(Oc4ccnc5[nH]ccc45)c3)cc2C(F)(F)F)CC1
[5]
  inhibition: 7.5%
[6]
  residual activity: 2%
[7]
  inhibition at 10 µM: 2.9%
[8]
  inhibition: inactive
[9]
  inhibition: inactive
[10]
  inhibition: 5.5%
[11]
  inhibition: 0.7%
[12]
  inhibition: inactive
